Assay results taken from PubChem BioAssay AID2812 (Southern Research Specialized Biocontainment Screening …, 2010).
Active and inactive are the calls of the source. No rule for the calls is given here.

Tested on: MAGI host cells cytotoxicity, % cell control, 5% serum
Assay: cytotoxicity in MAGI host cells, dose response, cytotoxicity control for HIV-1 antiviral project, 5% and 10% serum, set 2 (AID 2812)
[1] = MAGI host cells cytotoxicity, % cell control, 10% serum

CCS(=O)(=O)C1=NSC2=NC(=O)/C(=C\c3ccc(OS(=O)(=O)c4ccccc4)cc3)C(=N)N21 was tested, and the TC50 was > 100 µM (inactive) and the TC50 [1] was over 100 µM.
COc1ccccc1NS(=O)(=O)c1cccc(-n2c(O)c(C=Nc3ccccc3C(=O)O)c3ccccc3c2=O)c1 showed a TC50 of 93.7 µM and a TC50 [1] of over 100 µM.
With CS(=O)(=O)C1=NSC2=NC(=O)/C(=C\c3ccc(OS(=O)(=O)c4ccccc4)cc3)C(=N)N21 the TC50 was > 100 µM (inactive) and the TC50 [1] was over 100 µM.
Compound O=C1NC(=S)N(c2ccc(F)cc2)C(=O)/C1=C/c1ccco1 has a TC50 [1] of over 100 µM.
Work on Cc1ccc(-n2c(O)c(C=Nc3ccccc3-c3n[nH]c(=S)[nH]c3=O)c3ccccc3c2=O)c(C)c1 yielded a TC50 [1] of over 100 µM.
In the case of COc1ccc(OC)c(N2C(=O)/C(=C/c3ccco3)C(=O)NC2=S)c1, the TC50 [1] is reported as over 100 µM.
In the case of COc1cc(C=NNc2ccc(Cl)c(C(=O)O)c2)ccc1OC(=O)c1ccc(F)cc1, the TC50 is reported as > 100 µM (inactive) and the TC50 [1] is reported as over 100 µM.
In the case of COc1ccc(C(=O)Oc2ccc(C=NNc3ccc(Cl)c(C(=O)O)c3)cc2OC)cc1, the TC50 is reported as > 100 µM (inactive) and the TC50 [1] is reported as over 100 µM.
CC1(C)CC(=O)C2=C(C1)c1c(ccc3ccccc13)NC2c1cc([N+](=O)[O-])cc([N+](=O)[O-])c1O (stereo not given) showed a TC50 of 58.6 µM and a TC50 [1] of over 100 µM.
With COc1cc(C=NNc2ccc(Cl)c(C(=O)O)c2)ccc1OC(=O)c1ccccc1F the TC50 was > 100 µM (inactive) and the TC50 [1] was over 100 µM.
Work on O=C(O)c1ccccc1C(=O)N(Cc1cccc(Oc2ccc(Cl)cc2)c1)[C@H]1CCCc2ccccc21 yielded a TC50 of 56.4 µM and a TC50 [1] of over 100 µM.
For Cc1ccc(-n2cccc2/C=C2/C(=N)N3C(=NC2=O)SN=C3S(C)(=O)=O)cc1Cl, the TC50 was > 100 µM (inactive) and the TC50 [1] was over 100 µM.
O=C(O)c1cc(NN=Cc2ccc(-c3ccccc3)cc2)ccc1Cl was tested, and the TC50 was > 100 µM (inactive) and the TC50 [1] was over 100 µM.
With Cc1ccc(S(=O)(=O)Oc2ccc(/C=C3/C(=N)N4C(=NC3=O)SN=C4S(C)(=O)=O)cc2)cc1 the TC50 was > 100 µM (inactive) and the TC50 [1] was over 100 µM.
Cc1cc(C)cc(-n2cccc2/C=C2/C(=N)N3C(=NC2=O)SN=C3S(C)(=O)=O)c1 showed a TC50 of 79.5 µM and a TC50 [1] of over 100 µM.
In the case of CS(=O)(=O)C1=NSC2=NC(=O)/C(=C\c3cccn3-c3ccc(Cl)cc3)C(=N)N21, the TC50 is reported as > 100 µM (inactive) and the TC50 [1] is reported as over 100 µM.
With O=c1c(=Cc2cc([N+](=O)[O-])cc([N+](=O)[O-])c2O)sc2nc3ccccc3n12 the TC50 was > 100 µM (inactive) and the TC50 [1] was over 100 µM.
CC(C)S(=O)(=O)C1=NSC2=NC(=O)/C(=C\c3ccc(-c4ccccc4)o3)C(=N)N21 showed a TC50 of 74 µM and a TC50 [1] of over 100 µM.
With CC(C)S(=O)(=O)C1=NSC2=NC(=O)/C(=C\c3ccc(-c4cccc(C(=O)O)c4)o3)C(=N)N21 the TC50 was > 100 µM (inactive) and the TC50 [1] was over 100 µM.
